The values below come from paper PMC3180999 (Journal of medicinal chemistry, 2010).

Data set [1] concerns AR. Kind of data set: activity test, assay not named. It is filed as cell-based. The following applies: 27 as the standard, Scheme 10.
A further data set has as its system LNCaP/AR cells. Kind of data set: PSA expression readout in LNCaP/AR. It is filed as cell-based. The following applies: for activity: hormone-refractory LNCaP/AR, Scheme 21; for activity in the hormone refractory LNCaP/AR assay: Schemes 18 and 19; for activity using PSA levels in vitro: hormone refractory cell line LNCaP/AR, Scheme 17.
For the next data set, the system named is PSA secretion. Kind of data set: relative PSA level / PSA secretion assay, cell line not named. It counts as cell-based. The note with it: for relative PSA expression levels: vs bicalutamide and 27 as standards, Scheme 9.
The subject of data set [2] is AR. In words: luciferase reporter assay. It is filed as cell-based. The note with it: for luciferase assay activity: vs 21 and 22 as standards, Scheme 13; for luciferase reporter assay activity: Scheme 14; for relative luciferase activity: vs bicalutamide and 27 as standards, Scheme 8.
A short description of data set [3]: pharmacokinetics: serum concentration, steady state concentration.
The mark [4] stands for this setting: vs 21 and 22 as standards, Scheme 13.
Where [5] appears, read: vs 27 and 38 as standards, Scheme 12.

The structures appear in SMILES notation.

Turning to `Cc1ccc(N2C(=S)N(c3ccc(C#N)c(C(F)(F)F)c3)C(=O)C2(C)CF)cc1` (centres unmarked) [compound 47], the activity result in the data set with AR [1] was “good activity”.

For `CN(C)C(=O)CCCc1ccc(N2C(=S)N(c3ccc(C#N)c(C(F)(F)F)c3)C(=O)C23CCC3)cc1` [compound 94, N,N-dimethyl-4-[4-(7-(4-cyano-3-trifluoromethylphenyl)-8-oxo-6-thioxo-5,7-diazaspiro-[3.4]octan-5-yl)phenyl]butanamide], the activity entry with LNCaP/AR cells is recorded as “quite good activity compared to earlier compounds”. For `C/N=C1\N(c2ccc(C#N)c(C(F)(F)F)c2)C(=S)N(c2ccc(C)cc2)C12CCC2` [compound 57], the “relative PSA levels” value in the data set on PSA secretion (setting [4]) is “somewhat active”. In addition, the luciferase assay activity result with AR [2] is recorded as “somewhat active”. As for `N#CCCCc1ccc(N2C(=S)N(c3ccc(C#N)c(C(F)(F)F)c3)C(=O)C23CCC3)cc1` [compound 95, 4-[5-(4-(3-Cyanopropyl)phenyl)-8-oxo-6-thioxo-5,7-diazaspiro[3.4]octan-7-yl]-2-(trifluoromethyl) benzonitrile], the activity entry with LNCaP/AR cells is listed as “quite good activity compared to earlier compounds”. Take `N#Cc1ccc(N2C(=O)C3(CCC3)N(c3ccc(O)cc3)C2=S)cc1C(F)(F)F` [compound 49, 4-(8-Oxo-6-thioxo-5-(4-hydroxyphenyl)-5,7-diazaspiro[3.4]oct-7-yl)-2-trifluoromethylbenzonitrile]: in the data set on PSA secretion (vs standards, Scheme 11), the “relative PSA readout” value is on record as “very similar in activity to 38”. For `CC1(C)C(=S)N(c2ccc(C#N)c(C(F)(F)F)c2)C(=S)N1c1ccc(O)cc1` [compound 55], the “relative PSA readout” value with PSA secretion (setting [5]) is recorded as “not as active as the parent thiohydantoin 28”. In the case of `Cc1ccc(N2C(=S)N(c3ccc(C#N)c(C(F)(F)F)c3)C(=O)C23CCN(C)CC3)cc1` [compound 43, 4-(8-Methyl-4-oxo-2-thioxo-1-(4-methylphenyl)-1,3,8-triazaspiro[4.5]dec-3-yl)-2-trifluoromethylbenzonitrile], the “relative PSA expression levels” value with PSA secretion is “distinctly less active”. On to `CNC(=O)c1ccc(N2C(=S)N(c3ccc(C#N)c(C(F)(F)F)c3)C(=O)C2(C)C)cc1` [compound 88, 4-[3-(4-Cyano-3-trifluoromethylphenyl)-5,5-dimethyl-4-oxo-2-thioxo-imidazolidin-1-yl]-N-methylbenzamide], for which the “activity in the hormone refractory LNCaP/AR assay” value with LNCaP/AR cells is “good activity”. One may read the IC50 as the concentration that gives 50% inhibition. A high value points to lower potency. On to `N#Cc1ccc(N2C(=O)C3(CCC3)N(c3ccc(C=O)cc3)C2=S)cc1C(F)(F)F` [compound 75, 4-[5-(4-Formylphenyl)-8-oxo-6-thioxo-5,7-diazaspiro[3.4]oct-7-yl]-2-trifluoromethylbenzonitrile], for which the IC50 in the data set on PSA secretion lay in the range of 200 to 300 nM. `COC(=O)c1ccc(N2C(=S)N(c3ccc(C#N)c(C(F)(F)F)c3)C(=O)C2(C)C)cc1` [compound 87, 4-[3-(4-Cyano-3-trifluoromethylphenyl)-5,5-dimethyl-4-oxo-2-thioxo-imidazolidin-1-yl]benzoic acid methyl ester]: the “activity in the hormone refractory LNCaP/AR assay” value in the data set on LNCaP/AR cells is given as “good activity”. Turning to `Cc1ccc(N2/C(=N/c3ccc(C#N)c(C(F)(F)F)c3)S/C(=N\C(=S)Nc3ccc(C#N)c(C(F)(F)F)c3)C2(C)C)cc1` [compound 63], the “relative PSA levels” value in the data set on PSA secretion (Scheme 14) was “excellent activity comparable to their parent thiohydantoin analogues 27 and 38”. In the data set on AR [2], the “luciferase reporter assay activity” value is “excellent activity comparable to their parent thiohydantoin analogues 27 and 38”. In the case of `CNC(=O)c1ccc(N2C(=S)N(c3ccc(C#N)c(C(F)(F)F)c3)C(=O)C23CCC3)cc1` [compound 89, N-methyl-4-[7-(4-cyano-3-trifluoromethylphenyl)-8-oxo-6-thioxo-5,7-diazaspiro-[3.4]oct-5-yl]benzamide], the “activity in the hormone refractory LNCaP/AR assay” value in the data set on LNCaP/AR cells is given as “good activity”. For `CCC1(C)C(=O)N(c2ccc(C)cc2)C(=S)N1c1ccc(C#N)c(C(F)(F)F)c1` (centres unmarked) [compound 36, 4-[3-(4-Methylphenyl)-5-ethyl-5-methyl-4-oxo-2-thioxoimidazolidin-1-yl]-2-trifluoromethylbenzonitrile], the relative luciferase activity result in the data set with AR [2] is on record as “reduced activity relative to 27”.

As to `N#Cc1ccc(N2C(=O)C3(CCC3)N(c3ccccc3C(=O)O)C2=S)cc1C(F)(F)F` [compound 45], in the data set on AR [1], the outcome was inactive.

For the compound `CNC(=O)CCCc1ccc(N2C(=S)N(c3ccc(C#N)c(C(F)(F)F)c3)C(=O)C23CCC3)cc1` [compound 80, N-Methyl-4-{4-[7-(4-cyano-3-trifluoromethylphenyl)-8-oxo-6-thioxo-5,7-diaza-spiro[3.4]-oct-5-yl]phenyl}butanamide], the “activity using PSA levels in vitro” value in the data set on LNCaP/AR cells was “most active compound”. For the same compound, the “PK (serum concentration curve)” value in data set [3] (Figure 4) is given as “poor”. Further, in data set [3] (mouse, in vivo), the metabolism seen entry is “hydrolysis of the N-methyl amide to the acid was seen”. Consider `Cc1ccccc1N1C(=S)N(c2ccc(C#N)c(C(F)(F)F)c2)C(=O)C12CCC2` [compound 44], for which the result in the data set with AR [1] was active. On to `Cc1ccc(N2C(=S)N(c3ccc(C#N)c(C(F)(F)F)c3)C(=O)C2(CCl)CCl)cc1` [compound 46], for which the activity entry with AR [1] is on record as “decreased activity”. With `CC(O)(CS(=O)(=O)c1ccc(F)cc1)C(=O)Nc1ccc(C#N)c(C(F)(F)F)c1` (centres unmarked) [bicalutamide, reference compound], the “activity using PSA levels in vitro” value in the data set with LNCaP/AR cells is “inactive”. Regarding `CNC(=O)c1ccc(N2C(=S)N(c3ccc(C#N)c(C(F)(F)F)c3)C(=O)C2(C)C)cc1F` [compound 92, N-Methyl-4-[3-(4-cyano-3-trifluoromethylphenyl)-5,5-dimethyl-4-oxo-2-thioxoimidazolidin-1-yl]-2-fluorobenzamide], the “dose-response study on castration resistant LNCaP AR cells” value in the data set on LNCaP/AR cells (Figure 9) was “a little more active than 91”. Besides, in the data set with LNCaP/AR cells, the activity entry is “very active”.

`N#Cc1ccc(N2C(=O)C3(CCC3)N(c3ccc(/C=C/CO)cc3)C2=S)cc1C(F)(F)F` [compound 78, (E)-4-{5-[4-(3-Hydroxy-1-propenyl)phenyl]-8-oxo-6-thioxo-5,7-diazaspiro[3.4]oct-7-yl}-2-trifluoromethylbenzonitrile]: the IC50 with PSA secretion fell in the range of 100 to 150 nM. The compound `CC(O)c1ccc(N2C(=S)N(c3ccc(C#N)c(C(F)(F)F)c3)C(=O)C23CCC3)cc1` (centres unmarked) [compound 76, 4-{5-[4-(1-Hydroxyethyl)phenyl]-8-oxo-6-thioxo-5,7-diazaspiro[3.4]oct-7-yl}-2-trifluoromethylbenzonitrile] returned an IC50 with PSA secretion of 200 to 300 nM. As to `CC1(C)C(=O)N(c2ccc(C#N)c(C(F)(F)F)c2)C(=O)N1c1ccc(O)cc1` [compound 56], the “relative PSA readout” value in the data set with PSA secretion (setting [5]) was “not as active as the parent thiohydantoin 28”.

For the compound `CCC1(CC)C(=O)N(c2ccc(C)cc2)C(=S)N1c1ccc(C#N)c(C(F)(F)F)c1` [compound 37, 4-[3-(4-Methylphenyl)-5,5-diethyl-4-oxo-2-thioxoimidazolidin-1-yl]-2-trifluoromethylbenzonitrile], the relative luciferase activity entry with AR [2] is “reduced activity relative to 27”.

As to `CC1(C)C(=O)N(c2ccc(C#N)c(C(F)(F)F)c2)C(=S)N1c1ccc(C(F)(F)F)cc1` [compound 52, 4-(4,4-Dimethyl-5-oxo-2-thioxo-3-(4-trifluoromethylphenyl)imidazolidin-1-yl)-2-trifluoromethylbenzonitrile], in the data set on PSA secretion (vs standards, Scheme 11), the “relative PSA readout” value is on record as “slightly more active than the methyl analogue 27”. Consider `Cc1ccc(N2/C(=N/c3ccc(C#N)c(C(F)(F)F)c3)S/C(=N\C(=S)Nc3ccc(C#N)c(C(F)(F)F)c3)C23CCC3)cc1` [compound 64], for which the “relative PSA levels” value in the data set with PSA secretion (Scheme 14) was “excellent activity comparable to their parent thiohydantoin analogues 27 and 38”. Further, the “luciferase reporter assay activity” value in the data set on AR [2] was “excellent activity comparable to their parent thiohydantoin analogues 27 and 38”. As to `Cc1ccc(N2C(=S)N(c3ccc(C#N)c(C(F)(F)F)c3)C(=O)C23CCCC3)cc1` [compound 39, 4-(4-Oxo-2-thioxo-1-(4-methylphenyl)-1,3-diazaspiro[4.4]non-3-yl)-2-trifluoromethylbenzonitrile], in the data set on PSA secretion, the “relative PSA expression levels” value was “comparable to the dimethyl analogue 27”. With `N#Cc1ccc(N2C(=O)C3(CCC3)N(c3ccc(-c4ccccc4)cc3)C2=S)cc1C(F)(F)F` [compound 48], the “relative PSA readout” value with PSA secretion (vs standards, Scheme 11) is given as “very similar in activity to 38”. Turning to `CNC(=O)c1ccc(N2C(=S)N(c3ccc(C#N)c(C(F)(F)F)c3)C(=O)C23CCCC3)cc1F` [compound 93, N-Methyl-4-[3-(4-cyano-3-trifluoromethylphenyl)-4-oxo-2-thioxo-1,3-diazaspiro[4.4]nonan-1-yl]-2-fluorobenzamide], in the data set with LNCaP/AR cells, the activity entry is given as “very active”. On to `N#Cc1ccc(N2C(=O)C3(CCC3)N(c3ccc(O)cc3F)C2=S)cc1C(F)(F)F` [compound 90], for which the “activity in the hormone refractory LNCaP/AR assay” value with LNCaP/AR cells is on record as “good activity”. With `Cc1ccc(N2C(=S)N(c3ccc(C#N)c(C(F)(F)F)c3)C(=N)C2(C)C)cc1` [compound 54], the “relative PSA readout” value in the data set with PSA secretion (setting [5]) was “nearly as active as the parent compounds 27 and 38”. Compound `N#Cc1ccc(N2C(=O)C3(CCC3)N(c3ccc(/C=C/C(N)=O)cc3)C2=S)cc1C(F)(F)F` [compound 77, (E)-3-{4-[7-(4-cyano-3-trifluoromethylphenyl)-8-oxo-6-thioxo-5,7-diazaspiro[3.4]oct-5-yl]-phenyl}-2-propanamide] gave a 50% inhibitory concentration (IC50) in the data set with PSA secretion of 100 to 150 nM. Turning to `CC/N=C1\N(c2ccc(C#N)c(C(F)(F)F)c2)C(=S)N(c2ccc(C)cc2)C1(C)C` [compound 60], the “relative PSA levels” value in the data set on PSA secretion (setting [4]) is reported as “somewhat active”. The luciferase assay activity result with AR [2] was “somewhat active”. In the case of `Cc1ccc(N2C(=S)N(c3ccc(C#N)c(C(F)(F)F)c3)C(=N)C23CCC3)cc1` [compound 53], the “relative PSA readout” value in the data set with PSA secretion (setting [5]) is “nearly as active as the parent compounds 27 and 38”. Turning to `CS(=O)(=O)c1ccc(N2C(=S)N(c3ccc(C#N)c(C(F)(F)F)c3)C(=O)C23CCC3)cc1` [compound 86, 4-[5-(4-Methanesulfonylphenyl)-8-oxo-6-thioxo-5,7-diazaspiro[3.4]oct-7-yl]-2-trifluoromethylbenzonitrile], the “activity in the hormone refractory LNCaP/AR assay” value in the data set with LNCaP/AR cells is “good activity”.
